According to PubChem BioAssay AID463199 (Broad Institute, 2010):
Active and inactive are the calls of the source.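 How the source made its calls: active means AC50, the dose giving half-maximal effect, exceeds a fixed cutoff for a compound that rescues yeast growth under heat; inactive means the rest, inconclusive results apart.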

system: S. cerevisiae Burl-1 ts mutant growth, BacTiter-Glo, 38.5C 24 h; experiment: growth induction of Burl-1 ts yeast mutant, dose response, counter-screen for SUMOylation pathway inhibitor project, whole organism, S. cerevisiae, luminescence (AID 463199)

Row | Structure (SMILES) | AC50
1 | COc1ccc(S(=O)(=O)N2CCOC2CNC(=O)C(=O)NCc2ccncc2)cc1C (centres undefined) | > 42 µM (inactive)
2 | C[C@@]12C(=O)Nc3ccc(F)cc3C(=O)N1[C@H]1c3cc(Cl)ccc3OC[C@@H]1[C@@H]2c1ccccc1 | > 42 µM (inactive)
3 | CC(=O)N1CCC2(CC1)CC(=O)c1cc(OCC(=O)N3CCCC3)ccc1O2 | > 42 µM (inactive)
4 | COc1ccc(NC(=O)c2ccccc2NC(=O)NC2CCCCC2)cc1 | > 42 µM (inactive)
5 | Cc1cccc(CS(=O)(=O)Cc2ccc(C(=O)NCC3CCCO3)o2)c1 (centres undefined) | > 42 µM (inactive)
6 | Cc1cccc(C)c1NC(=O)C1(N(Cc2ccco2)C(=O)CC2NC(=O)NC2=O)CCCCC1 (centres undefined) | > 42 µM (inactive)
7 | O=C(CSc1nnc(-c2ccc(Br)cc2)o1)Nc1cccc2ccccc12 | > 42 µM (inactive)
8 | CCOc1ccccc1NC(=O)c1ccc2c(c1)C(=O)N(CC(C)C)C2=O | > 42 µM (inactive)
9 | Nc1nc(SCc2nc3scc(-c4cccs4)c3c(=O)[nH]2)n[nH]1 | > 42 µM (inactive)
10 | Cn1c(=NC(=O)COc2ccccc2)sc2cc(F)cc(F)c21 | > 42 µM (inactive)
11 | CCN(CC)c1nc2c(c(=O)[nH]c(=O)n2C)n1CCOc1ccccc1 | > 42 µM (inactive)
12 | COc1ccc(CN2CCCCCC2)cc1 | > 42 µM (inactive)
13 | CN(C)C(=O)CN1C(=O)c2cccc3cccc1c23 | > 42 µM (inactive)
14 | C=CCSc1nnc2c(n1)[nH]c1c(C)cccc12 | > 42 µM (inactive)
15 | COc1ccc(CCC(=O)Nc2ccc3c(c2)OCO3)cc1 | > 42 µM (inactive)
16 | C=C(C)C(=O)Nc1cccnc1Oc1ccc(F)cc1F | > 42 µM (inactive)
17 | CN1C(=O)c2ccc(NC(=S)NC(=O)C(C)(C)C)cc2C1=O | > 42 µM (inactive)
18 | N#Cc1ccc2[nH]c(CO)c(-c3ccccc3)c2c1 | > 42 µM (inactive)
19 | COc1ccc(-n2nc(C(=O)NCC(=O)N3CCCC3)c3ccccc3c2=O)c(OC)c1 | > 42 µM (inactive)
20 | COc1ccccc1CSc1ncc(-c2ccc([N+](=O)[O-])cc2)[nH]1 | > 42 µM (inactive)
21 | OCCN1CN=C(Nc2nc3ccccc3o2)NC1 | > 42 µM (inactive)
22 | COc1ccc(N2C(=O)CSC2c2ccc([N+](=O)[O-])cc2)cc1 (centres undefined) | > 42 µM (inactive)
23 | CCOc1cc(S(=O)(=O)NCc2ccc3c(c2)OCO3)c(C)cc1C | > 42 µM (inactive)
24 | CN(C(=O)c1ccncc1)c1nnc(-c2cnccn2)s1 | > 42 µM (inactive)
25 | Cc1ccc(CN(C)C(=O)c2ccc3c(c2)NC(=O)CS3)o1 | > 42 µM (inactive)

Row | Structure (SMILES) | AC50
26 | Cc1ccc(C(C(=O)Nc2ccc3c(c2)OCO3)N(C)C(=O)/C=C\c2ccc3c(c2)OCO3)cc1 (centres undefined) | > 42 µM (inactive)
27 | Cc1cccc(OCc2nnc(SCC(=O)O)n2-c2ccccc2)c1 | > 42 µM (inactive)
28 | O=c1[nH]cnc2sc3c(c12)CCC3 | > 42 µM (inactive)
29 | CCOC(=O)C1CCN(Cc2ccc(OCc3ccccc3)cc2)CC1 | > 42 µM (inactive)
30 | COc1ccc(NC(=O)CN2C(=O)c3ccccc3S2(=O)=O)cc1OC | > 42 µM (inactive)
31 | COc1ccc(NC2CCCN(C(=O)c3csc(C)n3)C2)cc1 (centres undefined) | > 42 µM (inactive)
32 | O=C1CCC(=O)N1CCOP1(=O)COc2ccccc2OC1 | > 42 µM (inactive)
33 | N#Cc1ccc(C23CC4(C2)[C@H](CN(Cc2ccc(C(F)(F)F)cc2)[C@@H]4c2ccccc2)C3c2ccc(C(F)(F)F)cc2)cc1 (some centres undefined) | > 42 µM (inactive)
34 | O=C1CN(C(=O)COC(=O)CCNS(=O)(=O)c2ccc(Cl)cc2)c2ccccc2N1 | > 42 µM (inactive)
35 | N=c1sccn1CC(=O)Nc1cccc(S(N)(=O)=O)c1 | > 42 µM (inactive)
36 | CCn1nc(CC(=O)Nc2ccc(-n3cnnn3)c(C)c2)c2ccccc2c1=O | > 42 µM (inactive)
37 | CCC(=O)N1CCc2cc(S(=O)(=O)CCC(=O)Nc3cccc(C)n3)ccc21 | > 42 µM (inactive)
38 | CC(=O)Nc1ccccc1C(=O)C(=O)Nc1ccc(C(=O)NCC2CCCO2)cc1 (centres undefined) | > 42 µM (inactive)
39 | CCOc1ccc(CCNC(=O)COC(=O)COc2ccc(C(C)=O)cc2)cc1OCC | > 42 µM (inactive)
40 | CSc1ncccc1C(=O)NC1CCCc2c1cnn2-c1ccc(C)c(C)c1 (centres undefined) | > 42 µM (inactive)
41 | CN(CC(=O)Nc1cccc(F)c1)CC(=O)Nc1cccc(S(N)(=O)=O)c1 | > 42 µM (inactive)
42 | O=C(/C=C/c1ccc(F)cc1)NCC1(c2ccccc2)CCOCC1 | > 42 µM (inactive)
43 | COc1ccccc1C(=O)NC(=O)COC(=O)Cc1ccccc1[N+](=O)[O-] | > 42 µM (inactive)
44 | C=CC[N+]1(CC#Cc2ccccc2)CCCC1 | > 42 µM (inactive)
45 | CC(=O)c1ccccc1C(=O)N1CCCC(N2CCN(Cc3ccc4c(c3)OCO4)CC2)C1 (centres undefined) | > 42 µM (inactive)
46 | CCc1c(C(=O)N2CCN(c3ccccc3F)CC2)[nH]c(C)c1C(C)=O | > 42 µM (inactive)
47 | Cc1cc(/C=C2\C(=O)NC(=O)N(c3ccccc3F)C2=O)c(C)n1-c1cc(C(=O)O)cc(C(=O)O)c1 | > 42 µM (inactive)
48 | CCN=C1S/C(=C/c2ccc(-c3ccc(F)cc3)o2)C(=O)N1CC | > 42 µM (inactive)
49 | CC(NC(=O)C12CC3CC(CC(O)(C3)C1)C2)c1ccccc1 (centres undefined) | > 42 µM (inactive)
50 | C=CCNC(=O)NC(=O)COC(=O)CCCSc1nc2ccccc2[nH]1 | > 42 µM (inactive)

Row | Structure (SMILES) | AC50
51 | CCOc1ccccc1NC(=O)CSc1nc(N)c(C#N)cc1C#N | > 42 µM (inactive)
52 | COc1ccccc1NC(=O)COC(=O)CC(C)(C)CC1=NS(=O)(=O)c2ccccc2N1 | > 42 µM (inactive)
53 | CCn1c(=O)n(CC)c2cc(NC(=O)c3ccccc3Cl)ccc21 | > 42 µM (inactive)
54 | Cc1cc(C)cc(NC(=O)C2CCCN(S(=O)(=O)c3ccc4[nH]c(=O)ccc4c3)C2)c1 (centres undefined) | > 42 µM (inactive)
55 | O=c1c2ccccc2ncn1Cc1ccc(Cl)cc1 | > 42 µM (inactive)
56 | C=C(C)Cn1c(SCC(=O)N/N=C/c2ccccc2OCC(=O)O)nnc1-c1ccc(Br)cc1 | > 42 µM (inactive)
57 | Cc1n[nH]c(=O)c2c(NC(=O)COC(=O)Cc3ccc(Cl)cc3Cl)oc(C)c12 | > 21 µM (inactive)
58 | COc1cccc(OC)c1C(=O)Nc1ccc2c(c1)n(C)c(=O)n2C | > 42 µM (inactive)
59 | CCCNCC(O)COc1ccccc1C(=O)CCc1ccccc1 (centres undefined) | > 42 µM (inactive)
60 | COC(=O)CNC(=O)CSc1ccccn1 | > 42 µM (inactive)
61 | CN(C)CCCN(Cc1ccccc1)C(=S)Nc1ccc(F)c(Cl)c1 | > 42 µM (inactive)
62 | O=C(CCNC(=O)c1ccccc1)Nc1cccnc1 | > 42 µM (inactive)
63 | CCN(CC)CC(=O)Nc1ccc(Oc2ccc(NC(=O)CN(CC)CC)cc2)cc1 | > 42 µM (inactive)
64 | Cc1ccc(NC(=O)C(=O)NCC2CCCN2S(=O)(=O)c2cccs2)cc1 (centres undefined) | > 42 µM (inactive)
65 | O=C(OCc1nc2ccsc2c(=O)[nH]1)c1ccco1 | > 42 µM (inactive)
66 | COc1cccc(/C=C2/C(=O)NN(c3ccc(Br)cc3)C2=O)c1O | > 42 µM (inactive)
67 | CCOc1ccc(Br)cc1CNCCN1CCOCC1 | > 42 µM (inactive)
68 | Cc1[nH]n(-c2ccccc2)c(=O)c1C(C[N+](=O)[O-])c1ccc(Br)cc1 (centres undefined) | 42.1 µM
69 | O=C(CN1CCN(C(=O)c2ccccc2)CC1)Nc1ncc(Br)cc1Br | > 42 µM (inactive)
70 | COc1cc(/C=N/n2cnnc2)ccc1OCc1ccccc1 | > 42 µM (inactive)
71 | COc1ccccc1C(=O)OCC(=O)NC(=O)NCc1ccccc1 | > 42 µM (inactive)
72 | O=C(Nc1ccc(F)cc1)c1cccnn1 | > 42 µM (inactive)
73 | Cc1ccc(N(C(=O)Cn2nnc3ccccc32)C(C(=O)NC2CCCCC2)c2cn(C)nc2C)cc1 (centres undefined) | > 21 µM (inactive)
74 | CCOC(=O)c1c(N)sc(C(=O)N2CCCC(C(N)=O)C2)c1C (centres undefined) | > 42 µM (inactive)
75 | O=C(COc1ncnc2c(Cl)cc(Cl)cc12)NCCC1=CCCCC1 | > 42 µM (inactive)

Row | Structure (SMILES) | AC50
76 | O=C(N=C1SC2CS(=O)(=O)CC2N1c1ccc(F)c(Cl)c1)C1CC1 (centres undefined) | > 42 µM (inactive)
77 | CCOc1ccc(C(=O)Nc2ccc(CN3CCOCC3)cc2)cc1Br | 41.9 µM
78 | O=C1CC(=O)C(n2cncn2)C(c2ccc(Cl)cc2Cl)C1 (centres undefined) | > 42 µM (inactive)
79 | Cc1ccc(NC(=S)NNC(=O)c2ccc(N3CCOCC3)c([N+](=O)[O-])c2)cc1C | > 42 µM (inactive)
80 | CCOc1ccc(NC(=O)CSc2nnc(Cc3csc(C)n3)o2)cc1 | > 42 µM (inactive)
81 | C=C(C)C(=O)OC1(C(F)(F)F)Oc2cc(C)ccc2NC1=O (centres undefined) | > 42 µM (inactive)
82 | COc1ccccc1CNC(=O)C(C)Sc1ccc(C)cc1 (centres undefined) | > 42 µM (inactive)
83 | COc1ccccc1OCCSc1nc2ccccc2n1CCC(=O)O | > 42 µM (inactive)
84 | CC(=O)NCc1c(Cl)cccc1-n1cccc1 | > 42 µM (inactive)
85 | CCOc1ccc(NC(=O)Nc2ccc3nsnc3c2)cc1 | > 42 µM (inactive)
86 | Cc1cnc(NC(=O)CSc2nc3ccccc3s2)s1 | > 42 µM (inactive)
87 | COc1ccccc1C(=O)N(NC(=O)Oc1ccccc1)C(C)(C)C | > 42 µM (inactive)
88 | Cc1ccc(Sc2cnccc2C#N)cc1 | > 42 µM (inactive)
89 | CCCOc1ccc(N2C(=O)CC(N3CCC(C(=O)OCC)CC3)C2=O)cc1 (centres undefined) | > 42 µM (inactive)
90 | Cc1cc(S(=O)(=O)NCC(C)C)ccc1OCC(=O)N1CCOCC1 | > 42 µM (inactive)
91 | O=C(Cn1sc2ccccc2c1=O)NC12CC3CC(CC(C3)C1)C2 | > 42 µM (inactive)
92 | Oc1c(Cl)cc(Cl)c(Cl)c1Cc1c(O)c(Cl)cc(Cl)c1Cl | > 42 µM (inactive)
93 | COc1ccc(NC(=O)c2cc(C)no2)cc1Cl | > 42 µM (inactive)
94 | O=C1NC(=O)C(=Cc2ccc(N3CCOCC3)cc2)C(=O)N1 | > 42 µM (inactive)
95 | Cc1ccc(C(C(=O)NCC2CCCO2)N(Cc2ccccc2F)C(=O)Cn2nnc(-c3cccs3)n2)cc1 (centres undefined) | > 42 µM (inactive)
96 | COc1ccc(C(=O)Sc2ccc(Cl)cc2)cc1OC | > 42 µM (inactive)
97 | COc1ccc(C)cc1NC(=O)C12CCC(C)(C(=O)O1)C2(C)C (centres undefined) | > 42 µM (inactive)
98 | CC(Cc1ccc(O)c(O)c1)C(C)Cc1ccc(O)c(O)c1 (centres undefined) | > 42 µM (inactive)
99 | CC1=Nc2ccc(C)cc2N(Cc2ccccc2)C(=O)C1 | > 42 µM (inactive)
